{"source": "patent US11344601B2", "about": "“Tumor microenvironment-related target TAK1 and application thereof in inhibition of tumor” (Shanghai Institutes for Biological Sciences, Chinese …, priority 2017, dated 2022)", "key": {"[1]": {"tested_on": "BCa cell line MDA-MB-231/stromal cell line HBF1203 xenograft tumors", "test": "BCa xenograft (MDA-MB-231/HBF1203) preclinical chemotherapy, terminal tumor volume", "assay_type": "in vivo, mice", "settings": "chemotherapy alone (group 6 vs group 5), MDA-MB-231/HBF1203 tumors", "method": "(§1) FIG. 84. Statistical comparative analysis of terminal tumor volumes in BCa tumors transplanted mice (BCa cell line MDA-MB-231/stromal cell line […]1 for administration alone or combined with bleomycin for chemotherapy). […] All experimental mouse experiments were carried out in strict accordance with the relevant regulations of the Institutional animal care and use committee (IACUC) of the shanghai Institute of Life Sciences of the Chinese Academy of Sciences. ICR-SCID mice at an age of about 6 weeks (about 25 g in body weight) were used in this patent-related animal experiment. Stromal cells PSC27 and epithelial cells were mixed at a ratio of 1:4, with each implant containing 1.25×10^6 cells for tissue recombination. The transplant tumor was implanted into mice subcutaneously, and the animals were euthanized at the end of Week 8 after transplantation. The tumor volume was calculated according to the following formula: […] Similarly, lung and breast cancer xenograft tumors were formed by tissue recombination with A549 (non-small cell lung cancer cell line) and W138 (lung fibroblast line), MDA-MB-231 (triple negative breast cancer cell line) and HBF1203 (breast fibroblast line), respectively. In the preclinical chemotherapy trial, mice subcutaneously transplanted with tumors were fed standard experimental diet. […]"}, "[2]": {"tested_on": "NSCLC cell line A549/stromal cell line W138 xenograft tumors", "test": "NSCLC xenograft (A549/W138) preclinical chemotherapy, terminal tumor volume", "assay_type": "in vivo, mice", "settings": "chemotherapy alone (group 6 vs group 5)", "method": "as §1, with “83.” for “84.”, “NSCLC” for “BCa”, “(NSCLC” for “(BCa”, “A549/stromal” for “MDA-MB-231/stromal”, “in combination” for “combined”, “bleomycin-based” for “bleomycin for”"}, "[3]": {"target": "T1, ATM (Homo sapiens, UniProt Q13315)", "T1 construct": "endogenous in cells; host or cells: PSC27 human prostate stromal cells", "T1 sequence (Q13315 whole entry)": "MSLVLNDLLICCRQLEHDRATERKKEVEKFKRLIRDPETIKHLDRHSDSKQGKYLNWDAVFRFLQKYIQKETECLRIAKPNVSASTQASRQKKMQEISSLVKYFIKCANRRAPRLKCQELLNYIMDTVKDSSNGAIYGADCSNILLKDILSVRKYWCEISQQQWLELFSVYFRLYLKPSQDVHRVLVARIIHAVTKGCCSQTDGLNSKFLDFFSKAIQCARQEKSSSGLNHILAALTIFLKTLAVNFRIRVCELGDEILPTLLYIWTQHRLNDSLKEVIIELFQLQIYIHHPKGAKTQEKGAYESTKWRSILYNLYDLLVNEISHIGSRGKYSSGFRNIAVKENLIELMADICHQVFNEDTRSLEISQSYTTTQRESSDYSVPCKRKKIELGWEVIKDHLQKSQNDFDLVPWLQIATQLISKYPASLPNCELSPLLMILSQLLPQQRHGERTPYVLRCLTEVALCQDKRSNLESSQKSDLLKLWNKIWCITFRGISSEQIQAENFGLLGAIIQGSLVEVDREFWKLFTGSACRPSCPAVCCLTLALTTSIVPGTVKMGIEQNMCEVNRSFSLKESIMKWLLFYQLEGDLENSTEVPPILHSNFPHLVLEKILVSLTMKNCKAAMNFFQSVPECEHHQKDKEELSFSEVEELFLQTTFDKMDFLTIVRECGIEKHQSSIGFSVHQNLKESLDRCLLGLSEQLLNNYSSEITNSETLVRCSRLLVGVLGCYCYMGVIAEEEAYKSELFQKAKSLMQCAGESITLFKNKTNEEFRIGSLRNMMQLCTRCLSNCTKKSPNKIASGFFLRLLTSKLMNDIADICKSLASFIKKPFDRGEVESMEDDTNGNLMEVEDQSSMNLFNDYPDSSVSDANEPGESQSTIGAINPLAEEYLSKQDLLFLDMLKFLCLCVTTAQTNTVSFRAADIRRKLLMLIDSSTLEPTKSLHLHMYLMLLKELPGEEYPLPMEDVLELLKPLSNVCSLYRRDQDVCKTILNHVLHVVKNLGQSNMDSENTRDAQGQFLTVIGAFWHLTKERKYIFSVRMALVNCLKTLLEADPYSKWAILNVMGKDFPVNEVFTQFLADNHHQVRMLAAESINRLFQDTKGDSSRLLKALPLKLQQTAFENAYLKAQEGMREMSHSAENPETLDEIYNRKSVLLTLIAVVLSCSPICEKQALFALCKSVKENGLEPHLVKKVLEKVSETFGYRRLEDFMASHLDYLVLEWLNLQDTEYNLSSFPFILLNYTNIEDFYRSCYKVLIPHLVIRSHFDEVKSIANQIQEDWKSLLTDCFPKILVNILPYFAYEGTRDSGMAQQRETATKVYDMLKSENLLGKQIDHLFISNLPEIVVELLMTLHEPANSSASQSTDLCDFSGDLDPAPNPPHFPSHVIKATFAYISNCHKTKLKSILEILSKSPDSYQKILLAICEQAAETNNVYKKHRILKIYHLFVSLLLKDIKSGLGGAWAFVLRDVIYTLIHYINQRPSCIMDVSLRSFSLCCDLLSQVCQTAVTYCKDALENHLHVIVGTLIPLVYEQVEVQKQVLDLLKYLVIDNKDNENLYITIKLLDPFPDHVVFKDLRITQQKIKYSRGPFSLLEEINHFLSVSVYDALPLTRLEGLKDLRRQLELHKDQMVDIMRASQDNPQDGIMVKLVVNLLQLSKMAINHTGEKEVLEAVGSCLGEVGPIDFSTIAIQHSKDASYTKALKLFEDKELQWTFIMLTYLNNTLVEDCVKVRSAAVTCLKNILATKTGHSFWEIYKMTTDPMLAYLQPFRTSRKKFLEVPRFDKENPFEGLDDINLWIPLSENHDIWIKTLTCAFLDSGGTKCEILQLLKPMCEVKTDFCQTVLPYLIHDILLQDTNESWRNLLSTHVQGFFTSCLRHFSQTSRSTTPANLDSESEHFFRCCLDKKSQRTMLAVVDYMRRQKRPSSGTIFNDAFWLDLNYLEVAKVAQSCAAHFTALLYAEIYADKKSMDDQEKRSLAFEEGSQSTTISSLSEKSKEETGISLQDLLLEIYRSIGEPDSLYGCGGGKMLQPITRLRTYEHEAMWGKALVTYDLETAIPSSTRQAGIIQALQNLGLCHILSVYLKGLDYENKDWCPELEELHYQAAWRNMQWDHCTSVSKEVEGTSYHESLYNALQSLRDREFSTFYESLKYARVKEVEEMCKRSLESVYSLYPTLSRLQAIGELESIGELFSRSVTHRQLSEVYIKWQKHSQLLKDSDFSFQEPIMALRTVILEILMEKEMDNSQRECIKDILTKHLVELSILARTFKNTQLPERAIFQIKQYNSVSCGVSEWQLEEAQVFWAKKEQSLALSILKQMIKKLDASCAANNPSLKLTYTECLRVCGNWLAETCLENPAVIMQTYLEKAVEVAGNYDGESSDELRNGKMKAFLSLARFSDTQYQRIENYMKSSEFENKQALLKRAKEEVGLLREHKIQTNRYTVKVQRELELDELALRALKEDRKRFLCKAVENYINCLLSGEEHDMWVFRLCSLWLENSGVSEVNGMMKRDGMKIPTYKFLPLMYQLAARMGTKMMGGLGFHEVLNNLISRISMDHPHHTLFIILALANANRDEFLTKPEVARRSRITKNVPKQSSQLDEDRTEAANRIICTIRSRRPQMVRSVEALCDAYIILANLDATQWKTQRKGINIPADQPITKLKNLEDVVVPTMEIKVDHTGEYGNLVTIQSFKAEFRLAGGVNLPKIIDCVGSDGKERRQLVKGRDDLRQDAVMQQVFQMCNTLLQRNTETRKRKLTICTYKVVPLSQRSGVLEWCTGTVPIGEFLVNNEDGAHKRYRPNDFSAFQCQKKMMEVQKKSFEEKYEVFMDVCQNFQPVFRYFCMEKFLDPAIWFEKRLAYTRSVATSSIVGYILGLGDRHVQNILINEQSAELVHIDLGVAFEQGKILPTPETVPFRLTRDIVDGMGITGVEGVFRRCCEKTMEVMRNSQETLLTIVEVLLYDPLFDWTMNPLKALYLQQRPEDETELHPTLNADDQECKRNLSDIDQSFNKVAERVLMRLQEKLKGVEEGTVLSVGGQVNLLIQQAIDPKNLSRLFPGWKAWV", "test": "p-ATM antibody-mediated IP of bleomycin-treated PSC27 cells (ATM-TRAF6 interaction)", "assay_type": "cell-based", "settings": "bleomycin-treated stromal cells", "experimental": "Phosphorylated ATM (p-ATM) antibody-mediated IP analysis. The expression levels of TRAF6, p-ATM and ATM in IP precipitates were detected by Western blot. TRAF6, a loading control. PSC27 was treated with bleomycin (50 ug/ml) and then with the ATM small molecule inhibitor KU55933 (KU, 10 μM)."}}, "data": [{"molecule": "bleomycin", "values": [{"measurement": "decrease in terminal tumor volume", "setting": "[1]", "result": 32, "unit": "%"}, {"measurement": "decrease in terminal tumor volume", "setting": "[2]", "result": 38, "unit": "%"}]}, {"molecule": "O=c1cc(-c2cccc3c2Sc2ccccc2S3)oc(N2CCOCC2)c1", "note": "[KU55933]", "values": [{"measurement": "interaction between activated ATM and TRAF6", "setting": "[3]", "result": "abolished"}]}]}
